From ChEMBL document CHEMBL1123618, “alpha,alpha-Difluoro-beta-aminodeoxystatine-containing renin inhibitory peptides” (J Med Chem, 1987)

Biological target: T1, Renin (Homo sapiens, UniProt P00797)
T1 sequence (P00797 whole entry): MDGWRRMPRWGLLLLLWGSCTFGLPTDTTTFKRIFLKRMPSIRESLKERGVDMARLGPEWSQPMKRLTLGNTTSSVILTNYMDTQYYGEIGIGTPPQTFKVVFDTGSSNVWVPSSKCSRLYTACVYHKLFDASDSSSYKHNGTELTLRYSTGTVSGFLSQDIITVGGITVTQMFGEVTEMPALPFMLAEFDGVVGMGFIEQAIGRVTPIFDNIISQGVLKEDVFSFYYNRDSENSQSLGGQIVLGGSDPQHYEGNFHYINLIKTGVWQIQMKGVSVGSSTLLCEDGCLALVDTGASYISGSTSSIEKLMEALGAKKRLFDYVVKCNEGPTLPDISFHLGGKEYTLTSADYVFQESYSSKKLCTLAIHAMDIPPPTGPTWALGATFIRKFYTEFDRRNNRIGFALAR
Experiment: Inhibitory activity against human plasma renin.
Format: cell-free

SMILES: CC[C@H](C)[C@H](NC(=O)C[C@@H](O)[C@H](CC(C)C)NC(=O)[C@H](Cc1c[nH]cn1)NC(=O)[C@H](Cc1ccccc1)NC(=O)OC(C)(C)C)C(=O)NCc1ccccn1
- IC50: 0.33 µM

SMILES: CC[C@H](C)[C@H](NC(=O)C(F)(F)[C@@H](N)[C@H](CC(C)C)NC(=O)[C@H](Cc1cnc[nH]1)NC(=O)[C@H](Cc1ccccc1)NC(=O)OC(C)(C)C)C(=O)NCc1ccccn1
- IC50: 2.8 µM

SMILES: CC[C@H](C)[C@H](NC(=O)C(F)(F)[C@H](N)[C@H](CC(C)C)NC(=O)[C@H](Cc1cnc[nH]1)NC(=O)[C@H](Cc1ccccc1)NC(=O)OC(C)(C)C)C(=O)NCc1ccccn1
- IC50: 0.34 µM

SMILES: CC[C@H](C)[C@H](NC(=O)C[C@H](N)[C@H](CC(C)C)NC(=O)[C@H](Cc1c[nH]cn1)NC(=O)[C@H](Cc1ccccc1)NC(=O)OC(C)(C)C)C(=O)NCc1ccccn1
- IC50: 0.015 µM

SMILES: CC[C@H](C)[C@H](NC(=O)C[C@@H](N)[C@H](CC(C)C)NC(=O)[C@H](Cc1c[nH]cn1)NC(=O)[C@H](Cc1ccccc1)NC(=O)OC(C)(C)C)C(=O)NCc1ccccn1
- IC50: 0.48 µM
